For 22 compounds, IC50 results are on record in patent US20150005288A1, “SUBSTITUTED PHENYLIMIDAZOPYRAZOLES AND USE THEREOF” (Bayer Intellectual Property GmbH, priority 2012, published 2015).

The target in this assay is T1, intracellular domain of human Tie2 (GST fusion protein) (Homo sapiens, UniProt Q02763).
T1 construct: intracellular domain of human Tie2 (amino acids 776-1124); made in house; host or cells: Baculovirus-infected insect cells (Hi5)
T1 sequence (Q02763 776-1124): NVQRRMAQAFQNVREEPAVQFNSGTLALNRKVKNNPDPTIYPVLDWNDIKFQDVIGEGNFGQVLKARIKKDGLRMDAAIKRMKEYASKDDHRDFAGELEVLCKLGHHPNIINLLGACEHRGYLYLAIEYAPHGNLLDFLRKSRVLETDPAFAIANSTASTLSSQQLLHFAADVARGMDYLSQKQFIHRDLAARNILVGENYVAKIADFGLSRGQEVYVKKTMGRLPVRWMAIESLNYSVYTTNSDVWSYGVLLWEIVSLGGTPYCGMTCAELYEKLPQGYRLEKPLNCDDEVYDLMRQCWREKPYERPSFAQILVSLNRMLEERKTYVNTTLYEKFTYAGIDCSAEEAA
As to the kind of experiment: Tie2 kinase assay (Tie2-TR-FRET). The following applies: ATP concentration 1 mM, in some cases means of several independent determinations. The assay is classed as biochemical. An outline of the steps: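 GST fusion of human Tie2 intracellular domain (aa 776-1124, Hi5-expressed), ~30 ng/ml, pre-incubated 15 min with compound, then 1 mM ATP and 1 μM biotinylated peptide, 60 min at 22 °C, pH 7. TR-FRET (Eu anti-phosphotyrosine/streptavidin-XL665, 665/620 nm ratio). […] 20 μM–0.073 nM in duplicate; IC50 by 4-parameter fit.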
For `Cc1cc(C)c(-n2ccn3nc(-c4cccnc4)cc23)cc1NC(=O)c1cc(CC(N)=O)cc(S(F)(F)(F)(F)F)c1` [Example 153, 3-(2-Amino-2-oxoethyl)-N-{2,4-dimethyl-5-[6-(pyridin-3-yl)-1H-imidazo[1,2-b]pyrazol-1-yl]-phenyl}-5-(pentafluoro-λ^6-sulphanyl)benzamide], the IC50 (in general, the point on the concentration scale where inhibition reaches its midpoint) is 0.3 nM.

Consider `Cc1cc(C)c(-n2ccn3nc(-c4cccnc4)cc23)cc1NC(=O)c1cc(CC(C)(C)O)cc(S(F)(F)(F)(F)F)c1` [Example 154, N-{2,4-Dimethyl-5-[6-(pyridin-3-yl)-1H-imidazo[1,2-b]pyrazol-1-yl]phenyl}-3-(2-hydroxy-2-methylpropyl)-5-(pentafluoro-λ^6-sulphanyl)benzamide], for which half-maximal inhibition (IC50) required 0.4 nM.

With `COCCOCc1cc(C(=O)Nc2cc(-n3ccn4nc(-c5cccnc5)cc34)c(C)cc2C)cc(S(F)(F)(F)(F)F)c1` [Example 155, N-{2,4-Dimethyl-5-[6-(pyridin-3-yl)-1H-imidazo[1,2-b]pyrazol-1-yl]phenyl}-3-[(2-methoxy-ethoxy)methyl]-5-(pentafluoro-λ^6-sulphanyl)benzamide], the IC50 was 0.7 nM.

Consider `Cc1ccc(NC(=O)c2cc(C#N)cc(S(F)(F)(F)(F)F)c2)c(O)c1-n1ccn2nc(-c3cccnc3)cc12` [Example 156, 3-Cyano-N-{2-hydroxy-4-methyl-3-[6-(pyridin-3-yl)-1H-imidazo[1,2-b]pyrazol-1-yl]phenyl}-5-(pentafluoro-λ^6-sulphanyl)benzamide], for which the IC50 turned out to be 5.9 nM.

In turn, `Cc1ccc(NC(=O)c2cccc(S(F)(F)(F)(F)F)c2)cc1-n1ccn2nc(-c3cccnc3)c(F)c12` [Example 158, N-{3-[7-Fluoro-6-(pyridin-3-yl)-1H-imidazo[1,2-b]pyrazol-1-yl]-4-methylphenyl}-3-(pentafluoro-λ^6-sulphanyl)benzamide] registered an IC50 of 58 nM.

In turn, `Cc1ccc(NC(=O)c2cc(C#N)cc(S(F)(F)(F)(F)F)c2)cc1-n1ccn2nc(-c3cccnc3)c(F)c12` [Example 159, 3-Cyano-N-{3-[7-fluoro-6-(pyridin-3-yl)-1H-imidazo[1,2-b]pyrazol-1-yl]-4-methylphenyl}-5-(pentafluoro-λ^6-sulphanyl)benzamide] registered an IC50 of 10 nM.

The compound `Cc1ccc(NC(=O)c2cc(C(C)(C)O)cc(S(F)(F)(F)(F)F)c2)cc1-n1ccn2nc(-c3cccnc3)c(F)c12` [Example 160, N-{3-[7-Fluoro-6-(pyridin-3-yl)-1H-imidazo[1,2-b]pyrazol-1-yl]-4-methylphenyl}-3-(2-hydroxypropan-2-yl)-5-(pentafluoro-λ^6-sulphanyl)benzamide] returned an IC50 of 1 nM.

`Cc1ccc(NC(=O)c2cccc(S(F)(F)(F)(F)F)c2)cc1-n1ccn2nc(-c3cncnc3)cc12` [Example 163, N-{4-Methyl-3-[6-(pyrimidin-5-yl)-1H-imidazo[1,2-b]pyrazol-1-yl]phenyl}-3-(pentafluoro-λ^6-sulphanyl)benzamide] returned an IC50 of 8.9 nM.

For `Cc1cc(C)c(-n2ccn3nc(-c4cncnc4)cc23)cc1NC(=O)c1cccc(S(F)(F)(F)(F)F)c1` [Example 164, N-{2,4-Dimethyl-5-[6-(pyrimidin-5-yl)-1H-imidazo[1,2-b]pyrazol-1-yl]phenyl}-3-(pentafluoro-λ^6-sulphanyl)benzamide], the IC50 worked out at 0.4 nM.

Regarding `Cc1cc(C)c(-n2ccn3nc(-c4cncnc4)cc23)cc1NC(=O)c1cc(Br)cc(S(F)(F)(F)(F)F)c1` [Example 165, 3-Bromo-N-{2,4-dimethyl-5-[6-(pyrimidin-5-yl)-1H-imidazo[1,2-b]pyrazol-1-yl]phenyl}-5-(pentafluoro-λ^6-sulphanyl)benzamide], it took 1.7 nM to reach half-maximal inhibition (IC50).

In turn, `Cc1cc(C)c(-n2ccn3nc(-c4cncnc4)cc23)cc1NC(=O)c1cc(C#N)cc(S(F)(F)(F)(F)F)c1` [Example 166, 3-Cyano-N-{2,4-dimethyl-5-[6-(pyrimidin-5-yl)-1H-imidazo[1,2-b]pyrazol-1-yl]phenyl}-5-(pentafluoro-λ^6-sulphanyl)benzamide] showed an IC50 of 0.3 nM.

Compound `Cc1ccc(NC(=O)c2cc(C#N)cc(S(F)(F)(F)(F)F)c2)cc1-n1ccn2nc(-c3ccnnc3)cc12` [Example 168, 3-Cyano-N-{4-methyl-3-[6-(pyridazin-4-yl)-1H-imidazo[1,2-b]pyrazol-1-yl]phenyl}-5-(pentafluoro-λ^6-sulphanyl)benzamide] showed an IC50 of 726 nM.

The compound `Cc1cc(C)c(-n2ccn3nc(-c4cccnn4)cc23)cc1NC(=O)c1cccc(S(F)(F)(F)(F)F)c1` [Example 169, N-{2,4-Dimethyl-5-[6-(pyridazin-3-yl)-1H-imidazo[1,2-b]pyrazol-1-yl]phenyl}-3-(pentafluoro-λ^6-sulphanyl)benzamide] yielded an IC50 of 1 nM.

For the compound `Cc1cc(C)c(-n2ccn3nc(-c4cccnn4)cc23)cc1NC(=O)c1cc(Br)cc(S(F)(F)(F)(F)F)c1` [Example 170, 3-Bromo-N-{2,4-dimethyl-5-[6-(pyridazin-3-yl)-1H-imidazo[1,2-b]pyrazol-1-yl]phenyl}-5-(pentafluoro-λ^6-sulphanyl)benzamide], it took 1.2 nM to reach half-maximal inhibition (IC50).

In turn, `Cc1cc(C)c(-n2ccn3nc(-c4cccnn4)cc23)cc1NC(=O)c1cc(C#N)cc(S(F)(F)(F)(F)F)c1` [Example 171, 3-Cyano-N-{2,4-dimethyl-5-[6-(pyridazin-3-yl)-1H-imidazo[1,2-b]pyrazol-1-yl]phenyl}-5-(pentafluoro-λ^6-sulphanyl)benzamide] showed an IC50 of 0.3 nM.

`Cc1ccc(NC(=O)c2cccc(S(F)(F)(F)(F)F)c2)cc1-n1ccn2nc(-c3cncs3)cc12` [Example 172, N-{4-Methyl-3-[6-(1,3-thiazol-5-yl)-1H-imidazo[1,2-b]pyrazol-1-yl]phenyl}-3-(pentafluoro-λ^6-sulphanyl)benzamide]: 7.8 nM corresponded to half-maximal inhibition (IC50).

The compound `Cc1ccc(NC(=O)c2cc(F)cc(S(F)(F)(F)(F)F)c2)cc1-n1ccn2nc(-c3cncs3)cc12` [Example 173, 3-Fluoro-N-{4-methyl-3-[6-(1,3-thiazol-5-yl)-1H-imidazo[1,2-b]pyrazol-1-yl]phenyl}-5-(pentafluoro-λ^6-sulphanyl)benzamide] displayed an IC50 of 9.3 nM.

`Cc1ccc(NC(=O)c2cc(Cl)cc(S(F)(F)(F)(F)F)c2)cc1-n1ccn2nc(-c3cncs3)cc12` [Example 174, 3-Chloro-N-{4-methyl-3-[6-(1,3-thiazol-5-yl)-1H-imidazo[1,2-b]pyrazol-1-yl]phenyl}-5-(pentafluoro-λ^6-sulphanyl)benzamide] returned an IC50 of 2.8 nM.

Compound `Cc1ccc(NC(=O)c2cc(Br)cc(S(F)(F)(F)(F)F)c2)cc1-n1ccn2nc(-c3cncs3)cc12` [Example 175, 3-Bromo-N-{4-methyl-3-[6-(1,3-thiazol-5-yl)-1H-imidazo[1,2-b]pyrazol-1-yl]phenyl}-5-(pentafluoro-λ^6-sulphanyl)benzamide] returned a concentration for half-maximal inhibition (IC50) of 3.2 nM.

Turning to `Cc1ccc(NC(=O)c2cc(S(C)(=O)=O)cc(S(F)(F)(F)(F)F)c2)cc1-n1ccn2nc(-c3cncs3)cc12` [Example 176, 3-(Methylsulphonyl)-N-{4-methyl-3-[6-(1,3-thiazol-5-yl)-1H-imidazo[1,2-b]pyrazol-1-yl]phenyl}-5-(pentafluoro-λ^6-sulphanyl)benzamide], it took 0.8 nM to reach half-maximal inhibition (IC50).

`Cc1ccc(NC(=O)c2cc(C#N)cc(S(F)(F)(F)(F)F)c2)cc1-n1ccn2nc(-c3cncs3)cc12` [Example 177, 3-Cyano-N-{4-methyl-3-[6-(1,3-thiazol-5-yl)-1H-imidazo[1,2-b]pyrazol-1-yl]phenyl}-5-(pentafluoro-λ^6-sulphanyl)benzamide] had an IC50 of 1.8 nM.

In the case of `Cc1ccc(NC(=O)c2cc(C(C)(C)O)cc(S(F)(F)(F)(F)F)c2)cc1-n1ccn2nc(-c3cncs3)cc12` [Example 178, 3-(2-Hydroxypropan-2-yl)-N-{4-methyl-3-[6-(1,3-thiazol-5-yl)-1H-imidazo[1,2-b]pyrazol-1-yl]-phenyl}-5-(pentafluoro-λ^6-sulphanyl)benzamide], the IC50 came to 0.8 nM.
